The values below come from US8785488B2 (Exelixis Patent Company LLC, priority 2009, dated 2014).

The target of one assay is T1, h-TGR5 (Homo sapiens, UniProt Q8TDU6).
T1 construct: expressed in transfected cells
T1 sequence (Q8TDU6 1-330): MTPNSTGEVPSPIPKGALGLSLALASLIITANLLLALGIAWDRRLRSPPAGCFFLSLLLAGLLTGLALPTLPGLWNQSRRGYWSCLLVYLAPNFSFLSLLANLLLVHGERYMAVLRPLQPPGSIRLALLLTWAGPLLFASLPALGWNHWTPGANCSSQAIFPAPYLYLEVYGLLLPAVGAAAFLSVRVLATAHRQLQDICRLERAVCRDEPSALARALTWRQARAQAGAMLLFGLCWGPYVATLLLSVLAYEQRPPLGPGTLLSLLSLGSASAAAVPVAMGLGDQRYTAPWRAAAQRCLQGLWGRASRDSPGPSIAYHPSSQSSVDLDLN
The assay is described as follows: TGR5 cAMP Assay using Cisbio cAMP Dynamic2 htrf kit (hTGR5CRE-luc HEK 293 cells). It counts as cell-based. The note with it: h-TGR5 cAMP EC50, Table 1; read-out: cAMP (EC50). A digest of the protocol: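 […], 4000 hTGR5CRE-luc HEK 293 cells per well, with 0.5 mM IBMX and d2-cAMP, were incubated 30 min at room temperature with compounds in 8-point half-log series, in quadruplicate.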

The target of the next assay is T2, human TGR5 (h-TGR5) (Homo sapiens, UniProt Q8TDU6).
T2 construct: expressed in transfected cells
T2 sequence (Q8TDU6 1-330): T1 sequence (Q8TDU6 1-330)
The assay is described as follows: TGR5/CRE-Luciferiase Assay (HEK 293 hTGR5/CRE-Luc cells). It counts as cell-based. The note with it: h-TGR5 CRE-Luc EC50, Table 1; read-out: CRE-Luc (EC50). A digest of the protocol:
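HEK293 cells stably carrying hTGR5 and a CRE-luciferase reporter were exposed to serially diluted compounds (diluted in DMEM with 5% DMSO) for 6 h. Cells were then lysed in luciferase buffer, luminescence was read, and EC50 values were derived from dose-response curves.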

Each structure is given as a SMILES string.

Take `COc1cc(-n2c(C(C)(C)c3ccc(S(C)(=O)=O)c(Cl)c3)cnc2SCc2ccc(S(=O)(=O)NC(=O)NN3CCCC3)cc2Cl)ccc1F` [3-chloro-4-{[(5-{1-[3-chloro-4-(methylsulfonyl)phenyl]-1-methylethyl}-1-[4-fluoro-3-(methyloxy)phenyl]-1H-imidazol-2-yl)thio]methyl}-N-[(pyrrolidin-1-ylamino)carbonyl]benzenesulfonamide]: the EC50 on h-TGR5 and on human TGR5 (h-TGR5) was 100 to 1000 nM each time.

For the compound `COc1cc(-n2c(C(C)(C)c3ccc(S(N)(=O)=O)c(Cl)c3)cnc2SCc2c(F)cc(S(=O)(=O)NC(=O)NN3CCOCC3)cc2F)ccc1F` [4-{[(5-{1-[4-(aminosulfonyl)-3-chlorophenyl]-1-methylethyl}-1-[4-fluoro-3-(methyloxy)phenyl]-1H-imidazol-2-yl)thio]methyl}-3,5-difluoro-N-[(morpholin-4-ylamino)carbonyl]benzenesulfonamide], the 50% effective concentration (EC50) on h-TGR5 and on human TGR5 (h-TGR5) was less than 100 nM in each case.

With `COc1cc(-n2c(C(C)(C)c3ccc(F)c(Cl)c3)cnc2SCc2c(F)cc(OCCNC(=N)N)cc2F)ccc1F` [1-[2-({4-[({5-[1-(3-chloro-4-fluorophenyl)-1-methylethyl]-1-[4-fluoro-3-(methyloxy)phenyl]-1H-imidazol-2-yl}thio)methyl]-3,5-difluorophenyl}oxy)ethyl]guanidine], the EC50 at h-TGR5 and on human TGR5 (h-TGR5) was less than 100 nM in each case.

As to `COc1cc(C(C)(C)c2cnc(SCC3CCN(S(C)(=O)=O)CC3)n2-c2ccc(F)cc2)ccc1Cl` [4-({[5-{1-[4-chloro-3-(methyloxy)phenyl]-1-methylethyl}-1-(4-fluorophenyl)-1H-imidazol-2-yl]thio}methyl)-1-(methylsulfonyl)piperidine], the EC50 on h-TGR5 and at human TGR5 (h-TGR5) was less than 100 nM throughout.

With `COc1cc(C(C)(C)c2cnc(SCc3c(F)cc(C(=O)NCCCC(N)C(=O)O)cc3Cl)n2-c2ccc(F)cc2)ccc1Cl` [N-5-{[3-chloro-4-({[5-{1-[4-chloro-3-(methyloxy)phenyl]-1-methylethyl}-1-(4-fluorophenyl)-1H-imidazol-2-yl]thio}methyl)-5-fluorophenyl]carbonyl}-L-ornithine], the EC50 on h-TGR5 and on human TGR5 (h-TGR5) was less than 100 nM throughout.

Turning to `CCOC(=O)NS(=O)(=O)c1ccc(CSc2ncc(C(C)(C)c3ccc(S(N)(=O)=O)c(Cl)c3)n2-c2ccc(F)cc2)c(Cl)c1` [ethyl {[4-({[5-{1-[4-(aminosulfonyl)-3-chlorophenyl]-1-methylethyl}-1-(4-fluorophenyl)-1H-imidazol-2-yl]thio}methyl)-3-chlorophenyl]sulfonyl}carbamate], the EC50 (as a rule, the concentration that produces a half-maximal response) at h-TGR5 was less than 100 nM; at human TGR5 (h-TGR5) it was 100 to 1000 nM.

As for `CCN(CC)CCS(=O)(=O)N1CCC(CSc2ncc(C(C)(C)c3ccc(Cl)c(Cl)c3)n2-c2ccc(F)cc2)CC1` [2-({4-[({5-[1-(3,4-dichlorophenyl)-1-methylethyl]-1-(4-fluorophenyl)-1H-imidazol-2-yl}thio)methyl]piperidin-1-yl}sulfonyl)-N,N-diethylethanamine], the EC50 at h-TGR5 and at human TGR5 (h-TGR5) was 100 to 1000 nM throughout.

`COc1cc(C(C)(C)c2cnc(SCc3c(F)cc(OCC/C=N/NC(=N)N)cc3Cl)n2-c2ccc(F)cc2)ccc1Cl` [(2E)-2-(3-{[3-chloro-4-({[5-{1-[4-chloro-3-(methyloxy)phenyl]-1-methylethyl}-1-(4-fluorophenyl)-1H-imidazol-2-yl]thio}methyl)-5-fluorophenyl]oxy}propylidene) hydrazinecarboximidamide]: the EC50 on h-TGR5 and on human TGR5 (h-TGR5) was less than 100 nM throughout.

Regarding `COc1cc(C(C)(C)c2cnc(SCc3ccc(S(=O)(=O)NC(=O)NCC(C)(C)O)cc3Cl)n2-c2ccc(F)cc2)ccc1Cl` [3-chloro-4-({[5-{1-[4-chloro-3-(methyloxy)phenyl]-1-methylethyl}-1-(4-fluorophenyl)-1H-imidazol-2-yl]thio}methyl)-N-{[(2-hydroxy-2-methylpropyl)amino]carbonyl} benzenesulfonamide], the 50% effective concentration (EC50) at h-TGR5 and on human TGR5 (h-TGR5) was 100 to 1000 nM in each case.

Consider `COc1ccc(C(C)(C)c2cnc(CCc3c(F)cccc3Cl)n2-c2ccc(F)cc2)cc1OC` [5-{1-[3,4-bis(methyloxy)phenyl]-1-methylethyl}-2-[2-(2-chloro-6-fluorophenyl)ethyl]-1-(4-fluorophenyl)-1H-imidazole], for which the EC50 at h-TGR5 and at human TGR5 (h-TGR5) was less than 100 nM in each case.

As for `COc1cc(C(C)(C)c2cnc(SCc3c(F)cc(S(=O)(=O)O)cc3Cl)n2-c2ccc(F)cc2)ccc1Cl` [3-chloro-4-({[5-{1-[4-chloro-3-(methyloxy)phenyl]-1-methylethyl}-1-(4-fluorophenyl)-1H-imidazol-2-yl]thio}methyl)-5-fluorobenzenesulfonic acid], the EC50 on h-TGR5 and on human TGR5 (h-TGR5) was less than 100 nM each time.

Turning to `CC(C)NC(=O)NS(=O)(=O)c1ccc(CSc2ncc(C(C)(C)c3ccc(F)c(C#N)c3)n2-c2ccc(F)cc2)c(Cl)c1` [3-chloro-4-[({5-[1-(3-cyano-4-fluorophenyl)-1-methylethyl]-1-(4-fluorophenyl)-1H-imidazol-2-yl}thio)methyl]-N-{[(1-methylethyl)amino]carbonyl}benzenesulfonamide], the EC50 at h-TGR5 and on human TGR5 (h-TGR5) was 100 to 1000 nM each time.

As to `CC(C)(c1ccc(O)c(O)c1)c1cnc(SCc2c(F)cccc2Cl)n1-c1ccc(F)cc1` [4-{1-[2-{[(2-chloro-6-fluorophenyl)methyl]thio}-1-(4-fluorophenyl)-1H-imidazol-5-yl]-1-methylethyl}benzene-1,2-diol], the EC50 at h-TGR5 was 100 to 1000 nM; at human TGR5 (h-TGR5), less than 100 nM.

Turning to `CC(C)(c1ccc(S(N)(=O)=O)c(Cl)c1)c1cnc(SCc2ccc(Cl)c(-c3nnn[nH]3)c2)n1-c1ccc(F)c(F)c1` [2-chloro-4-{1-[2-({[4-chloro-3-(1H-tetrazol-5-yl)phenyl]methyl}thio)-1-(3,4-difluorophenyl)-1H-imidazol-5-yl]-1-methylethyl}benzenesulfonamide], the EC50 at h-TGR5 and at human TGR5 (h-TGR5) was 100 to 1000 nM throughout.

Regarding `COc1ccc(C(C)(C)c2cnc(SCc3c(F)cccc3Cl)n2-c2ccc(F)cc2)cc1` [2-{[(2-chloro-6-fluorophenyl)methyl]thio}-1-(4-fluorophenyl)-5-{1-methyl-1-[4-(methyloxy)phenyl]ethyl}-1H-imidazole], the EC50 was 100 to 1000 nM on h-TGR5 and less than 100 nM on human TGR5 (h-TGR5).

On to `COc1cc(C(C)(C)c2cnc(SCc3ccc(S(=O)(=O)NC(=O)NN4CCCC4)cc3F)n2-c2ccc(F)cc2)ccc1Cl` [4-({[5-{1-[4-chloro-3-(methyloxy)phenyl]-1-methylethyl}-1-(4-fluorophenyl)-1H-imidazol-2-yl]thio}methyl)-3-fluoro-N-[(pyrrolidin-1-ylamino)carbonyl]benzenesulfonamide], for which the EC50 on h-TGR5 is 100 to 1000 nM; on human TGR5 (h-TGR5), less than 100 nM.

Regarding `CC(C)(c1ccc(Cl)c(Cl)c1)c1cnc(SCc2ccc(C(=O)O)cc2F)n1-c1ccc(F)cc1` [4-[({5-[1-(3,4-dichlorophenyl)-1-methylethyl]-1-(4-fluorophenyl)-1H-imidazol-2-yl}thio)methyl]-3-fluorobenzoic acid], the EC50 on h-TGR5 and on human TGR5 (h-TGR5) was 100 to 1000 nM in each case.

As to `CC(C)(c1ccc(Cl)c(Cl)c1)c1cnc(SCc2c(F)cc(C(=O)NCCS(=O)(=O)O)cc2F)n1-c1ccc(F)c(Cl)c1` [2-[({4-[({1-(3-chloro-4-fluorophenyl)-5-[1-(3,4-dichlorophenyl)-1-methylethyl]-1H-imidazol-2-yl}thio)methyl]-3,5-difluorophenyl}carbonyl)amino]ethanesulfonic acid], the EC50 on h-TGR5 and at human TGR5 (h-TGR5) was less than 100 nM in each case.

Consider `CC(C)(c1ccc(C(N)=O)c(Cl)c1)c1cnc(SCc2ccc(F)cc2Cl)n1-c1ccc(F)cc1` [2-chloro-4-{1-[2-{[(2-chloro-4-fluorophenyl)methyl]thio}-1-(4-fluorophenyl)-1H-imidazol-5-yl]-1-methylethyl}benzamide], for which the EC50 at h-TGR5 was less than 100 nM; on human TGR5 (h-TGR5), 100 to 1000 nM.

As for `CC(C)(c1ccc(Cl)c(Cl)c1)c1cnc(SCc2ccc(C(=O)NCCc3c[nH]cn3)cc2F)n1-c1ccc(F)cc1` [4-[({5-[1-(3,4-dichlorophenyl)-1-methylethyl]-1-(4-fluorophenyl)-1H-imidazol-2-yl}thio)methyl]-3-fluoro-N-[2-(1H-imidazol-4-yl)ethyl]benzamide], the EC50 on h-TGR5 and at human TGR5 (h-TGR5) was 100 to 1000 nM throughout.

For the compound `CC(C)(c1ccc(S(N)(=O)=O)cc1)c1cnc(SCc2c(F)cccc2Cl)n1-c1ccc(F)cc1` [4-{1-[2-{[(2-chloro-6-fluorophenyl)methyl]thio}-1-(4-fluorophenyl)-1H-imidazol-5-yl]-1-methylethyl}benzenesulfonamide], the EC50 on h-TGR5 and at human TGR5 (h-TGR5) was 100 to 1000 nM each time.

Turning to `CC(C)(c1ccc(F)c(F)c1)c1cnc(SCC2CCN(C(=O)NN3CCCC3)CC2)n1-c1ccc(F)cc1` [4-[({5-[1-(3,4-difluorophenyl)-1-methylethyl]-1-(4-fluorophenyl)-1H-imidazol-2-yl}thio)methyl]-N-pyrrolidin-1-ylpiperidine-1-carboxamide], the EC50 on h-TGR5 and at human TGR5 (h-TGR5) was 100 to 1000 nM in each case.
